Numbers after ± are expanded uncertainties.
What was measured:
[1] = refractive index (Na D-line) (dimensionless); details: 293.2 K; 101.33 kPa; Liquid; Standard Abbe refractometry

| Normal melting temperature (Crystal, visual observation) [°C] | Structure (SMILES) | mass density (293.2 K, 101.33 kPa, Liquid, Pycnometric method) [kg/m3] | refractive index [1] |
| --- | --- | --- | --- |
| 52.7 ± 0.5 | O=C1C=CC(=O)O1 [maleic anhydride] | – | – |
| – | CCOC(=O)c1ccccc1C(=O)OCC [diethyl phthalate] | 1118.2 ± 1 | 1.5016 ± 0.0007 |

— the NIST ThermoML archive (doi:10.1016/j.jct.2006.02.008)
